{"source": "patent US6586416B2", "about": "“Methods of treatment using an epithelial sodium channel blocker and an inhibitor of the mineralocorticoid receptor” (priority 2001, dated 2003)", "assay_type_in_all_cases": "cell-based", "key": {"[1]": {"test_system": "amiloride-sensitive sodium conductance (ENaC)", "assay": "Whole-cell patch clamp of rabbit collecting duct principal cells", "details": "for mean current measured at EK+ (−80 mV): statistical analysis, aldosterone, then vasopressin, then amiloride", "description": "(§1) Collecting ducts were manually dissected from sagittal slices obtained from 50 gram Sprague Dawley rats and 0.5 Kg New Zealand White rabbits. The dissected collecting ducts were suspended in RPMI 1640 culture medium supplemented with 1.5 mg/ml collagenase A (Boehringer Mannheim, Mannhein, Germany). The collecting ducts were enzymatically digested for 1.5 hours to isolate individual cells. The digested cells were washed in serum-free RPMI and placed in a perfusion chamber mounted on the stage of an inverted microscope. The whole-cell patch clamp configuration was established and initial current measurements were made in un-supplemented RPMI. […] To block the cytosolic mineralocorticoid receptor, some cells were suspended in RPMI supplemented with spironolactone for 1 hour prior to whole-cell patch clamping.\nStudies were conducted using both whole cell patch clamp and single channel patch clamp techniques. Whole-cell clamped rabbit principal cells were exposed to 100 nM aldosterone. […] No cells failed both tests. […] ENa+ was approximately +60 mV with the ionic gradients present. The activated current was carried exclusively by sodium. In a separate set of experiments rabbit principal cells were re-suspended in RPMI supplemented with 1 μM spironolactone for 1 hour prior to use for whole-cell patch clamp. This concentration is sufficient to inhibit completely the mineralocorticoid receptor."}, "[2]": {"target": "T1, amiloride-sensitive sodium conductance (ENaC) (Rattus norvegicus, UniProt P37089+P37090+P37091)", "T1 construct": "Collecting ducts were manually dissected from sagittal slices obtained from 50 gram Sprague Dawley rats and 0.5 Kg New Zealand White rabbits; from tissue; host or cells: principal cells isolated from kidney collecting ducts of Sprague Dawley rats", "T1 sequence (P37089 1-698)": "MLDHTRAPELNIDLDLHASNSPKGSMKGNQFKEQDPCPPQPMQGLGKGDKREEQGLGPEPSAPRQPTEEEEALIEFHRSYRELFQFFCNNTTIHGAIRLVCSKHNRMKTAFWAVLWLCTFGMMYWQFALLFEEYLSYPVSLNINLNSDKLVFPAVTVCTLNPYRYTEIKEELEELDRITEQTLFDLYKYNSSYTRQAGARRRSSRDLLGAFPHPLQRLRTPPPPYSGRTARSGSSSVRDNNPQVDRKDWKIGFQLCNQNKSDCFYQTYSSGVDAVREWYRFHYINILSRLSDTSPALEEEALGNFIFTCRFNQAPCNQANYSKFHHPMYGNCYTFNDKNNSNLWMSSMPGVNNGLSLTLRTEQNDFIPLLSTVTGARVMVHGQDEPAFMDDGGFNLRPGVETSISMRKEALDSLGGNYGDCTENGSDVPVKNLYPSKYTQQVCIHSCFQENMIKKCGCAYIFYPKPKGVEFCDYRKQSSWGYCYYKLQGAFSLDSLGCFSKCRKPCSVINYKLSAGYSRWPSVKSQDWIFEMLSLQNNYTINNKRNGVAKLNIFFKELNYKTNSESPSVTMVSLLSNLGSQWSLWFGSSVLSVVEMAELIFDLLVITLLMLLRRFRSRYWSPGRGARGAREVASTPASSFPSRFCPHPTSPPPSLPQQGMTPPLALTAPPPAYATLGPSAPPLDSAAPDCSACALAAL", "T1 sequence (P37090 1-638)": "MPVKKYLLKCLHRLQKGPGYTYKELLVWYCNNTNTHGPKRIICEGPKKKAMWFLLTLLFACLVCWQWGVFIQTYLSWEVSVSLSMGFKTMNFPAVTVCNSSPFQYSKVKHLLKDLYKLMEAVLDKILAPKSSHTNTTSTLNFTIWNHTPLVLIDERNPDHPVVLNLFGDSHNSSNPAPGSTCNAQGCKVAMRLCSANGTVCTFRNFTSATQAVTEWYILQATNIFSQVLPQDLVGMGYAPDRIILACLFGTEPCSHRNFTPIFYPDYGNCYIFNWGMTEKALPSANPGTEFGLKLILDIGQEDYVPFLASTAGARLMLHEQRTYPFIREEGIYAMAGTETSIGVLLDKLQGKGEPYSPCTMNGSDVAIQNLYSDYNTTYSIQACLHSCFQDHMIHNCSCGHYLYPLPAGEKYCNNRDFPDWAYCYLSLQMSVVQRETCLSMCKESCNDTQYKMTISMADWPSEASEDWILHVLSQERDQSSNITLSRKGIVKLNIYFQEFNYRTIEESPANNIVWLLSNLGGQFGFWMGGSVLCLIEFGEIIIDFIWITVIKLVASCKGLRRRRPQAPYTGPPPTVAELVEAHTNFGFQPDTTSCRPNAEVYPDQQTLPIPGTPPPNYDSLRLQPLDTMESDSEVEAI", "T1 sequence (P37091 1-650)": "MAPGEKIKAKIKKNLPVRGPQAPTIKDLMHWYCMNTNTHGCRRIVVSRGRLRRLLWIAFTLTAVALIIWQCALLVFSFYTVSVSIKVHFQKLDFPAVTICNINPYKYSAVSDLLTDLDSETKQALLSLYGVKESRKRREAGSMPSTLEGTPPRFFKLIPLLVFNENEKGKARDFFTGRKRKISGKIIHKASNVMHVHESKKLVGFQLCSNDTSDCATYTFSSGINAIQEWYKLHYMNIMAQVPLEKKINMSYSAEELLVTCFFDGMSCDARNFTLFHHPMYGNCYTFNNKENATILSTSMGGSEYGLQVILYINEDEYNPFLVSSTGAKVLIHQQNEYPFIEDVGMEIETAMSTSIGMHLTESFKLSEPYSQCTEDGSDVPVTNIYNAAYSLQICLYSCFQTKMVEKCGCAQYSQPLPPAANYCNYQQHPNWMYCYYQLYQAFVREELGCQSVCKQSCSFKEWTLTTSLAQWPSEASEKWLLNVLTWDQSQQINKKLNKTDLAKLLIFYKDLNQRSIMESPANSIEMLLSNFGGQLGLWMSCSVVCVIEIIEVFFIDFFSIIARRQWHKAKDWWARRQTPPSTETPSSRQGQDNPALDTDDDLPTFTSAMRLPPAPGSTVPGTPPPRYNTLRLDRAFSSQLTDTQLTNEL", "assay": "Whole-cell patch clamp of rat collecting duct principal cells", "details": "for mean current measured at EK+ (−80 mV): statistical analysis, then vasopressin, then amiloride", "description": "as §1\nThe same protocol was carried out on rabbit principal cells."}, "ENaC": {"target": "T2, ENaC (Homo sapiens, UniProt P37088+P51168+P51170)", "T2 construct": "Human and canine lymphocytes were isolated from peripheral blood samples by differential centrifugation over ficoll paque; endogenous in cells; host or cells: human peripheral blood lymphocytes", "T2 sequence (P37088 1-669)": "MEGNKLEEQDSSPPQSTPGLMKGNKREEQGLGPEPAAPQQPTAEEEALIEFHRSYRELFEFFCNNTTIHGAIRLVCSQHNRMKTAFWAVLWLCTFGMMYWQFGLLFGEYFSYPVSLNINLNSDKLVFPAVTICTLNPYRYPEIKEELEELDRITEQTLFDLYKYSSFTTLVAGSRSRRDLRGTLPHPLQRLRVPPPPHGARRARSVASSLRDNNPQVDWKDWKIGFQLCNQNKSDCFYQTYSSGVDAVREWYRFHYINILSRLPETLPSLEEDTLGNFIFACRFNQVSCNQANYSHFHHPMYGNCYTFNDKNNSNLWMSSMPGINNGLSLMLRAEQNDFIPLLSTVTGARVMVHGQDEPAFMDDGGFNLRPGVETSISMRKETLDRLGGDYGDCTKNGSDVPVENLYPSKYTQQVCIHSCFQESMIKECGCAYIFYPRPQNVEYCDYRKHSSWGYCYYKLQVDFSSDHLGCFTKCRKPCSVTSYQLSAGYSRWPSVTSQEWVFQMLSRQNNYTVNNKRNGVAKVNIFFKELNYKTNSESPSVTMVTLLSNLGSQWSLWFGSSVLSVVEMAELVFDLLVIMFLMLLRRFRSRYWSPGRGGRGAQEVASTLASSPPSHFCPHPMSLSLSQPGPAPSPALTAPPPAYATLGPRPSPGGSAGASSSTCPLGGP", "T2 sequence (P51168 1-640)": "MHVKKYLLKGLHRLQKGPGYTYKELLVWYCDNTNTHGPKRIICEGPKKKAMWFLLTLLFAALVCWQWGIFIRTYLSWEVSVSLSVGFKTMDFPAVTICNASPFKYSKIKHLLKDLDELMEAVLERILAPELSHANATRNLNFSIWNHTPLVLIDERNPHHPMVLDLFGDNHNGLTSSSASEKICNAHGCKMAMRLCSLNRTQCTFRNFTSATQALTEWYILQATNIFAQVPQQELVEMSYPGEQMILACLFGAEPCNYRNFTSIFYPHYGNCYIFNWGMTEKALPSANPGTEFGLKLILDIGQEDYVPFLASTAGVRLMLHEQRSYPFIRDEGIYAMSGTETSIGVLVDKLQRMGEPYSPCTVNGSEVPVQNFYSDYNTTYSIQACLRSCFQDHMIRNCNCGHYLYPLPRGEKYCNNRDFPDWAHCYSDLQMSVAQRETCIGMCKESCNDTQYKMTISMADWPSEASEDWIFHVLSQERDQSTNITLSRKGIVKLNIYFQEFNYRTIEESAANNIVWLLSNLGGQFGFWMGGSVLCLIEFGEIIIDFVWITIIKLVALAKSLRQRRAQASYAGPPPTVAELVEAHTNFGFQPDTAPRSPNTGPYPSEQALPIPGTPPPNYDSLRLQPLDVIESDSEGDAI", "T2 sequence (P51170 1-649)": "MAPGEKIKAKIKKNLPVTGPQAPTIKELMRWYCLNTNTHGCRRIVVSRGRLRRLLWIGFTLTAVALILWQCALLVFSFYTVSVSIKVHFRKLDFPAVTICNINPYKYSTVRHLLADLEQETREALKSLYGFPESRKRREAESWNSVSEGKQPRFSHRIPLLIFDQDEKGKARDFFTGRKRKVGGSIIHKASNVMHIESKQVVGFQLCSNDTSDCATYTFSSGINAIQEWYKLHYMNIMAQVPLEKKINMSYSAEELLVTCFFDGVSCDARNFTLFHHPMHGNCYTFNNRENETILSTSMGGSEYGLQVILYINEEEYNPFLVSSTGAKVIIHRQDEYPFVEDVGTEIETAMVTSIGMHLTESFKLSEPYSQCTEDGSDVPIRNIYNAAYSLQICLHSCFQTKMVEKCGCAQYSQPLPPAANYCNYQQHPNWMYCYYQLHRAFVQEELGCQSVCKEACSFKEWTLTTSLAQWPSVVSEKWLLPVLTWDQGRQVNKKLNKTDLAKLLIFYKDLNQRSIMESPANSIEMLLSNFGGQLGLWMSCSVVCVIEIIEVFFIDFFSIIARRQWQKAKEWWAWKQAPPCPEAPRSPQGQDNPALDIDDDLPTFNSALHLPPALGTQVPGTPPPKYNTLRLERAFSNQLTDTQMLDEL", "assay": "Single channel patch clamp (outside-out patches) of human lymphocytes", "description": "Human and canine lymphocytes were isolated from peripheral blood samples by differential centrifugation over ficoll paque (Pharmacia Biotech, Uppsala, Sweden). The cells were washed and re-suspended in serum-free RPMI. Subsequently, suspended cells were placed in the perfusion chamber. Whole-cell patch clamp and testing of aldosterone were carried out using identical techniques and protocols as described for principal cells. Rabbit, rat and mouse lymphocytes were obtained by mincing sections of spleen and manually freeing the cells by agitation. The cell suspensions were then centrifuged over ficoll paque and treated identically to the lymphocytes obtained from peripheral blood. All procedures were carried out under the guidelines for animal use and with institutional board approval for human use.\nThe “ragged” morphology of the whole-cell currents in principal cells and lymphocytes has generated some concern about the identity of the channels that are activated by aldosterone. To address this concern, single channel characteristics of the sodium conductors expressed by human lymphocytes were studied.\nTo test the amiloride sensitivity of the single channels, outside-out patches were formed because amiloride only interacts with the outside surface of the channels. A “rundown” phenomena typical of ENaC in the inside-out patch experiments was noted."}}, "data": [{"smiles": "CC(=O)S[C@@H]1CC2=CC(=O)CC[C@]2(C)[C@H]2CC[C@@]3(C)[C@@H](CC[C@@]34CCC(=O)O4)[C@H]12", "note": "[spironolactone]", "values": [{"measurement": "effect on inward currents", "setting": "[1]; rabbit principal cells, 1 μM spironolactone for 1 hour prior to whole-cell patch clamp", "value": "no effect on the inward currents"}]}, {"smiles": "NC(=O)CC[C@@H]1NC(=O)[C@H](Cc2ccccc2)NC(=O)[C@H](Cc2ccc(O)cc2)NC(=O)[C@@H](N)CSSC[C@@H](C(=O)N2CCC[C@H]2C(=O)N[C@@H](CCCN=C(N)N)C(=O)NCC(N)=O)NC(=O)[C@H](CC(N)=O)NC1=O", "note": "[vasopressin]", "values": [{"measurement": "mean current measured at EK+ (−80 mV)", "setting": "[1]; rabbit principal cells", "value": "had no additional effect"}, {"measurement": "further activation of inward currents after ENaC activation by aldosterone", "setting": "[1]; rabbit principal cells, vasopressin after aldosterone", "value": "did not activate the inward currents any further"}, {"measurement": "activation of amiloride sensitive inward currents", "setting": "[2]; 250 nM vasopressin after aldosterone", "value": "acute specific activation of the amiloride sensitive inward currents"}, {"measurement": "mean current measured at EK+ (−80 mV)", "setting": "[2]; aldosterone", "value": "increased it significantly"}]}, {"smiles": "C[C@]12CCC(=O)C=C1CC[C@@H]1[C@@H]2[C@@H](O)C[C@]2(C=O)[C@@H](C(=O)CO)CC[C@@H]12", "note": "[aldosterone]", "values": [{"measurement": "effect on inward currents with mineralocorticoid receptor inhibition", "setting": "[1]; rabbit principal cells pre-treated with 1 μM spironolactone, 100 nM aldosterone", "value": "specifically activated the inward currents"}, {"measurement": "effect on inward currents at hyperpolarized membrane potential clamp voltages", "setting": "[1]; rabbit principal cells, 100 nM aldosterone in bath", "value": "specific activation of the inward currents"}, {"measurement": "mean current measured at EK+ (−80 mV)", "setting": "[1]; rabbit principal cells", "value": "significantly increased the current"}, {"measurement": "time to aldosterone-stimulated ENaC activation", "setting": "[1]; rabbit principal cells, whole-cell clamp, ATP-supplemented pipette solution", "value": "within seconds"}, {"measurement": "unitary conductance", "setting": "ENaC; cells treated with 100 nM aldosterone", "value": "unchanged"}, {"measurement": "acute effect on principal cells", "setting": "[2]; aldosterone", "value": "no acute affect"}, {"measurement": "mean current measured at EK+ (−80 mV)", "setting": "[2]; aldosterone", "value": "did not alter the current"}]}, {"smiles": "N=C(N)NC(=O)c1nc(Cl)c(N)nc1N", "note": "[amiloride]", "values": [{"measurement": "inhibition of aldosterone-activated currents", "setting": "[1]; rabbit principal cells, 2 μM amiloride in the continued presence of aldosterone", "value": "inhibited completely"}, {"measurement": "mean current measured at EK+ (−80 mV)", "setting": "[1]; rabbit principal cells", "value": "returned the conductance to the basal level"}, {"measurement": "single channel activity", "setting": "ENaC; amiloride 2 μM", "value": "completely abolished"}, {"measurement": "inhibition of single channels", "setting": "ENaC; amiloride concentration close to IC50 ([…] nM)", "value": "Incomplete inhibitory action"}, {"measurement": "single channel activity", "setting": "ENaC; cells treated with 100 nM aldosterone, amiloride 2 μM final concentration in bath", "value": "virtually abolished"}, {"measurement": "mean current measured at EK+ (−80 mV)", "setting": "[2]; aldosterone", "value": "restored the current to the basal level"}]}]}
